In patent publication US20250367290A1, “ENGINEERED STEM CELLS AND USES THEREOF” (Umoja Biopharma, Inc., priority 2022, published 2025):

Tests used:
[1] = system: PSMA-positive human prostate cancer cells; conditions: DUPA-(99m) Tc; cited from earlier work
[2] = system: RACR-CAR+ cells; assay: Differentiation of RACR-transduced CLP into CIL cells with or without common gamma chain cytokines; assay type: cell-based, human
[3] = system: RACR-iCILs; assay: Proliferation of D47 RACR-iCILs; assay type: cell-based; conditions: rapalog 100 nM
Experimental: RACR-iCILs were generated similar to as described in FIG. 18A and FIG. 18B except without SCF and TPO included in the HP medium as described in Example 9 and FIG. 17A. Data shown are from two BE-RACR iPSC clones. At D40 RACR-iCILs were incubated for one week in a maturation medium containing IL-2, IL-7, IL-12, IL-15, IL-18 and activation beads (anti-CD2/NKp46). RACR-iCILs were then incubated with breast adenocarcinoma MDA-MB23 1 cells expressing a nuclear fluorescent protein at a 10:1 […] ratio in the presence of medium alone, cytokines (IL-2/IL-7/IL-15), or rapalog (100 nM). Cell mixtures were placed into an IncuCyte fluorescent microscope and imaged every 2 hours. The number of MDA-MB23 1 cells was quantified over time via a fluorescent marker and graphed as the ratio of MDA-MB23 1 cells compared to time 0 (time 0 is equal to one). […] RACR-iCILs were then collected, placed in fresh media, and then re-exposed to MDA-MB23 1 cells for a rechallenge (FIG. 19A). Proliferation of D47 RACR-iCILs was also evaluated in different cytokine treatments or rapalog (100 nM).

[4] = system: TagCAR-RACR iCIL cells; assay: RACR-driven differentiation and expansion of iCIL cells from Day 26 lymphoid progenitors; assay type: cell-based, human; conditions: AP21967 100 nM, no other cytokine
From the text: The RACR-system was utilized for differentiation to iPSC-derived CIL cells (iCIL cells). The iPSC cell line ATCC-BXS0117 (ATCC #ACS-1031) was differentiated into lymphoid progenitors through the STEMdiff NK cell kit (STEMCELL® Technologies, #100-0170) as described in Example 2 above, up until the Day 26 timepoint. The percentage of cells containing common lymphoid progenitors (CD45+/CD5+/CD7+), CIL precursors (CD45+/CD5−/CD7+), and early CIL cells (CD45+/CD5−/CD7+/CD56+) is seen in FIG. 3D with ˜50% of the cells presenting as CIL precursors and ˜25% of total cells presenting as early CIL cells. In this study, Day 26 cells were pelleted and placed in a CIL expansion media at 2×10^6 cells/mL containing (IL-2, IL-15, IL-21, IL-18, IL-7 in complete RPMI media: RPMI1640, 10% FBS, 1× Pen-Strep, and 1× Glutamax). […]
At Day 27, the cells were transduced with either VSV-G lentivirus with the payload of Tag (anti-FITC) CAR-P2A-FRB-P2A-RACR at an MOI 10 with 10 µg/mL of protamine sulfate or treated with 10 μg/mL or protamine sulfate alone (Mock). […] An aliquot of cells was collected weekly, counted on the Vicell Blu automated cell counter, and stained for CD16 clone 3G8, CD56 clone HCD56, CD45 clone 2D1, CD5 clone L17F12, CD7 clone CD7-6B7 and anti-FITC CAR (TagCAR) detection through FITC-AF647.

[5] = system: iCIL cells; assay: iCIL differentiation and expansion in bioreactors; assay type: cell-based; conditions: iCIL differentiation phase
Experimental: At Day 15 of culture, the differentiated cells were continued in culture for up to 40 days for iCIL cell generation. At Day 21, the GRex bioreactor was seeded with the cells, as described in Example 13. […] Lower seeding densities on days 15 and 24 contributed to increased iCIL yields, while higher seeding densities contributed to higher iCIL yields on Days 30-33 (FIG. 39B). In another experiment, this step was repeated with two different stirred-tank bioreactors at various stages in the protocol.
Thus, Aim V was used as the base medium for the iCIL differentiation phase. Components and supplements in the Aim V medium used during the iCIL differentiation phase were tested for their effect on iCIL yield and cytotoxicity.

[6] = system: wildtype iPSCs; assay: iPSC confluency after four days of rapamycin; assay type: cell-based, human; conditions: four days of treatment
Experimental: (§1) RACR requires rapamycin for activation; however, rapamycin inhibits cell growth. To generate rapamycin resistant cells, the FKBP12 gene was knocked-out. […] In the absence of FKBP12, rapamycin cannot interact with the mTOR complex and thus loses its inhibitory capacity. The efficiency of the knockout was determined by Sanger sequencing. Con1, Con2, or Con3 indicate different electroporation conditions for CRISPR-Cas9 based editing resulting in differing levels of knockout. Phase-contrast images reveal normal iPSC morphology in both wild type and FKBP12 KO cells, FIG. 16B, right panel. The confluency of wildtype iPSCs after four days of treatment with varying doses of rapamycin with inhibition of growth at 1 nM rapamycin or higher is shown in FIG. 16C. […] The ability of clonal FKBP12 KO iPSCs to differentiate to hematopoietic progenitors (HPs) in the presence of rapamycin is shown in FIG. 16E.

[7] = system: hematopoietic progenitors (CD34+/CD43+/CD45+); assay: HP differentiation phase: rapamycin requirement; assay type: cell-based
Experimental: RACR iPSCs (edited B2M-EF1a-RACR and knocked out for FKBP12) were cultured in media, as described in Example 9. At day 0-2, embryoid bodies (EBs) were generated from a single cell suspension of iPSCs in STEMdiff APEL 2 Medium (STEMCELL Technologies) supplemented with BMP4, FGF2, VEGF, Y27632, and +/− rapalog (RL; AP21967) or +/− rapamycin (RM). EBs were formed using plates comprising aggregates of microwells (e.g. Aggrewell™ 800 plates) at 500 iPSC/EB or 1000 iPSC/EB, as described in Example 9 and shown in FIG. 34. As shown in FIG. 35A-B, higher iPSC confluency at the start of differentiation contributes to a higher HP yield. Further, a range of 200-250 iPSC/EBs seeded in microwells is optimal to achieve the highest HP yield on day 15 (FIG. 35C).
The differentiating EBs were moved to non-tissue culture treated 6-well plates (Corning) at day 6 and fresh HP Medium was added. Every 3 days from days 3-15, half of the media was replaced with HP Medium.

[8] = system: FKBP12 KO iPSCs; assay: iPSC confluency during four days of rapamycin; assay type: cell-based, human; conditions: four days of treatment
Experimental: as §1

[9] = system: non-Hodgkin's lymphoma tumor cells; assay: RACR-iCIL co-culture cytotoxicity with or without rituximab; assay type: cell-based; conditions: added to RACR-iCILs
Experimental: (§2) In a similar experiment, RACR-iCILs were cocultured with Burkitt's lymphoma tumor cells or non-Hodgkin's lymphoma tumor cells at a ratio of 2.5:1, 10:1, or 0:1, and stimulated with and without rapamycin and/or cytokines. Additional groups included rituximab. Cytotoxicity was determined by imaging cells across 40 hours, as described in Example 6.

[10] = system: Burkitt's lymphoma tumor cells; assay: as above; assay type: cell-based; conditions: added to RACR-iCILs
Experimental: as §2

Compound: O=C(O)CC[C@H](NC(=O)N[C@@H](CCC(=O)O)C(=O)O)C(=O)O [DUPA]
- Kd [1]: 14 nM

Compound: CO[C@@H]1C[C@H](C[C@H](C)C2CC(=O)[C@@H](C)/C=C(\C)[C@@H](O)[C@@H](OC)C(=O)[C@H](C)C[C@@H](C)/C=C/C=C/C=C(\C)[C@H](c3c[nH]c4c(C)cccc34)C[C@H]3CC[C@@H](C)[C@@](O)(O3)C(=O)C(=O)N3CCCC[C@H]3C(=O)O2)CC[C@@H]1O (some centres unmarked) [AP21967]
- percent of RACR-CAR+CD56+ cells ([2]; 4 nM AP21967, all media conditions, Day 40): increase in the percent of RACR-CAR+CD56+ cells
- fold change in RACR-CAR+ cells ([2]; UM729 alone (None) media plus rapalog): largest fold change in RACR-CAR+ cells
- total RACR-iCILs one week after stimulation [3]: supported RACR-iCIL growth
- iCIL expansion and differentiation [4]: sufficient to drive iCIL expansion in the absence of any other cytokine signaling

Compound: CO[C@H]1C[C@@H]2CC[C@@H](C)[C@@](O)(O2)C(=O)C(=O)N2CCCC[C@H]2C(=O)O[C@H]([C@H](C)C[C@@H]2CC[C@@H](O)[C@H](OC)C2)CC(=O)[C@H](C)/C=C(\C)[C@@H](O)[C@@H](OC)C(=O)[C@H](C)C[C@H](C)/C=C/C=C/C=C/1C [rapamycin]
- lowest rapamycin concentration sufficient to expand iCIL cells [5]: 6.2 nM
- rapamycin dose with inhibition of growth (confluency) [6]: ≥ 1 nM
- lowest rapamycin concentration sufficient to produce comparable HP yields [7]: 3.1 nM
- rapamycin doses with robust growth (confluency) [8]: up to 100 nM

Compound: rituximab: antibody added to RACR-iCIL co-cultures with lymphoma tumor cells
- further increase of tumor killing [9]: 10%
- further increase of tumor killing [10]: 10%
